In patent US10723741B1, “DNA polymerase IIIC inhibitors and use thereof” (Acurx Pharmaceuticals, LLC, priority 2018, dated 2020):
Converted amounts (≈) assume the structure as drawn. Like-named read-outs stand apart in the source and are kept apart here.

Tests used:
Assay type in all cases: cell-based
[1] = system: Enterococcus faecium ATCC 700221 (VRE); assay: Broth microdilution MIC, E. faecium ATCC 700221 (VRE); settings: Enterococcus faecium, broth microdilution, 37° C., 20 hours
Summary of the method: (§1)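 Two-fold dilutions from 64 to 0.0625 μg/ml final, 1% DMSO, were inoculated at ~5.0×10^5 cfu/ml in the strain's test medium and kept 20 h at 37 °C in ambient atmosphere. Colonies were grown on MHA, with S. pneumoniae on blood agar under 5% CO2.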

[2] = system: Enterococcus faecalis ATCC 29212; assay: Broth microdilution MIC, E. faecalis ATCC 29212; settings: ATCC29212, broth microdilution, 37° C., 20 hours, read-out: MIC E. faecalis ATCC 29212
Summary of the method: as §1

[3] = system: Bacillus subtilis ATCC 6633; assay: Broth microdilution MIC, B. subtilis ATCC 6633; settings: ATCC6633, broth microdilution, 37° C., 20 hours, read-out: MIC B. subtilis ATCC 6633
Summary of the method: as §1

[4] = system: Staphylococcus aureus ATCC 29213 (MSSA); assay: Broth microdilution MIC, S. aureus ATCC 29213 (MSSA); settings: broth microdilution, 37° C., 20 hours, read-out: MIC S. aureus ATCC 29213 (MSSA)
Summary of the method: as §1

[5] = system: Streptococcus pneumoniae ATCC 49619; assay: Broth microdilution MIC, S. pneumoniae ATCC 49619; settings: ATCC49619, broth microdilution, 37° C., 20 hours, read-out: MIC S. pneumoniae ATCC 49619
Summary of the method: as §1

[6] = system: Escherichia coli ATCC 25922; assay: Broth microdilution MIC, E. coli ATCC 25922 (MHIIB w & w/o 4 mM EDTA); settings: broth microdilution, 37° C., 20 hours; for MIC: Escherichia coli, ATCC25922, without EDTA, read-out: MIC E. coli ATCC 25922; for MIC E. coli ATCC 25922 + 4 mM EDTA: with 4 mM EDTA
Summary of the method: as §1

[7] = system: Staphylococcus aureus NRS384 (MRSA); assay: Broth microdilution MIC, S. aureus NRS384 (MRSA); settings: Staphylococcus aureus, broth microdilution, 37° C., 20 hours
Summary of the method: as §1

[8] = read-out: MIC E. faecium ATCC 700221 (VRE)

SMILES	MIC [1, 8] [µg/mL]	MIC [2] [µg/mL]	MIC [3] [µg/mL]	MIC [4] [µg/mL]	MIC [5] [µg/mL]	MIC [6] [µg/mL]	MIC E. coli ATCC 25922 + 4 mM EDTA [6] [µg/mL]	MIC ([7]; read-out: MIC NRS 384 (MRSA)) [µg/mL]	MIC ([1]; MHIIB, read-out: MIC against E. faecium ATCC 700221 (VRE)) [µg/mL]	MIC ([7]; MHIIB, read-out: MIC against S. aureus NRS 384 (MRSA)) [µg/mL]
CN(CCn1ncc2nc(NCc3ccc(Cl)c(Cl)c3)[nH]c(=O)c21)C(=O)c1cc(Cl)nnc1Cl [Compound 85, 3,6-dichloro-N-(2-(5-((3,4-dichlorobenzyl)amino)-7-oxo-6,7-dihydro-1H-pyrazolo[4,3-d]pyrimidin-1-yl)ethyl)-N-methylpyridazine-4-carboxamide]	4 (≈ 7.38 µM)	8 (≈ 14.8 µM)	4 (≈ 7.38 µM)	8 (≈ 14.8 µM)	8 (≈ 14.8 µM)	> 64	16	8 (≈ 14.8 µM)		
CN(CCn1ncc2nc(NCc3ccc(Cl)c(Cl)c3)[nH]c(=O)c21)C(=O)c1cc(O)nnc1Cl [Compound 87, 3-chloro-N-(2-(5-((3,4-dichlorobenzyl)amino)-7-oxo-6,7-dihydro-1H-pyrazolo[4,3-d]pyrimidin-1-yl)ethyl)-6-hydroxy-N-methylpyridazine-4-carboxamide]	32 (≈ 61.1 µM)	32 (≈ 61.1 µM)	64 (≈ 122 µM)	64 (≈ 122 µM)	8 (≈ 15.3 µM)	> 64	>64	> 64		
CC(=O)OCCCCn1ncc2nc(NCc3ccc(Cl)c(Cl)c3)[nH]c(=O)c21 [Compound 90, 4-(5-((3,4-Dichlorobenzyl)amino)-7-oxo-6,7-dihydro-1H-pyrazolo[4,3-d]pyrimidin-1-yl)butyl acetate]	1	2	0.5	2	2	> 64	>64	1	≤ 1	≤ 1
O=c1[nH]c(NCc2ccc(Cl)c(Cl)c2)nc2cnn(Cc3nccs3)c12 [Compound 91, 5-((3,4-Dichlorobenzyl)amino)-1-(thiazol-2-ylmethyl)-1H-pyrazolo[4,3-d]pyrimidin-7(6H)-one]	2 (≈ 4.91 µM)	4 (≈ 9.82 µM)	1 (≈ 2.46 µM)	4 (≈ 9.82 µM)	4 (≈ 9.82 µM)	> 64	32	2 (≈ 4.91 µM)		
O=c1[nH]c(NCc2ccc(Cl)c(Cl)c2)nc2cnn(Cc3cocn3)c12 [Compound 92, 5-((3,4-Dichlorobenzyl)amino)-1-(oxazol-4-ylmethyl)-1H-pyrazolo[4,3-d]pyrimidin-7(6H)-one]	2 (≈ 5.11 µM)	4 (≈ 10.2 µM)	2 (≈ 5.11 µM)	4 (≈ 10.2 µM)	4 (≈ 10.2 µM)	> 64	8	4 (≈ 10.2 µM)		
O=C1CCC(Cn2ncc3nc(NCc4ccc(Cl)c(Cl)c4)[nH]c(=O)c32)N1 (stereo not drawn) [Compound 93, 5-((3,4-Dichlorobenzyl)amino)-1-((5-oxopyrrolidin-2-yl)methyl)-1H-pyrazolo[4,3-d]pyrimidin-7(6H)-one]	4 (≈ 9.82 µM)	8 (≈ 19.6 µM)	4 (≈ 9.82 µM)	8 (≈ 19.6 µM)	2 (≈ 4.91 µM)	> 64	64	16 (≈ 39.3 µM)		
O=C1CCCN1CCn1ncc2nc(NCc3ccc(Cl)c(Cl)c3)[nH]c(=O)c21 [Compound 94, 5-((3,4-Dichlorobenzyl)amino)-1-(2-(2-oxopyrrolidin-1-yl)ethyl)-1H-pyrazolo[4,3-d]pyrimidin-7(6H)-one]	4 (≈ 9.49 µM)	16 (≈ 38 µM)	8 (≈ 19 µM)	16 (≈ 38 µM)	4 (≈ 9.49 µM)	> 64	>64	16 (≈ 38 µM)		
CCCCOCCOCCOCCn1ncc2nc(NCc3ccc(Cl)c(Cl)c3)[nH]c(=O)c21 [Compound 95, 1-(2-(2-(2-Butoxyethoxy)ethoxy)ethyl)-5-((3,4-dichlorobenzyl)amino)-1H-pyrazolo[4,3-d]pyrimidin-7(6H)-one]	4 (≈ 8.03 µM)	16 (≈ 32.1 µM)	2 (≈ 4.01 µM)	4 (≈ 8.03 µM)	8 (≈ 16.1 µM)	> 64	>64	4 (≈ 8.03 µM)		
O=c1[nH]c(NCc2ccc(Cl)c(Cl)c2)nc2cnn(C[C@H]3NC[C@H](O)[C@@H](O)[C@@H]3O)c12 [Compound 96, 5-((3,4-Dichlorobenzyl)amino)-1-(((2R,3R,4R,5 S)-3,4,5-trihydroxypiperidin-2-yl)methyl)-1H-pyrazolo[4,3-d]pyrimidin-7(6H)-one]	64 (≈ 141 µM)	> 64	> 64	> 64	64 (≈ 141 µM)	> 64	32	> 64		
Cn1ccnc1Cn1ncc2nc(NCc3ccc(Cl)c(Cl)c3)[nH]c(=O)c21 [Compound 97, 5-((3,4-Dichlorobenzyl)amino)-1-((1-methyl-1H-imidazol-2-yl)methyl)-1H-pyrazolo[4,3-d]pyrimidin-7(6H)-one]	8 (≈ 19.8 µM)	> 64	8 (≈ 19.8 µM)	8 (≈ 19.8 µM)	4 (≈ 9.89 µM)	> 64	>64	8 (≈ 19.8 µM)		
CC(C)(C)OC(=O)N1CCC(n2ncc3nc(NCc4ccc(Cl)c(Cl)c4)[nH]c(=O)c32)C1 (stereo not drawn) [Compound 98, tert-Butyl 3-(5-((3,4-dichlorobenzyl)amino)-7-oxo-6,7-dihydro-1H-pyrazolo[4,3-d]pyrimidin-1-yl)pyrrolidine-1-carboxylate]	4 (≈ 8.34 µM)	> 64	2 (≈ 4.17 µM)	8 (≈ 16.7 µM)	16 (≈ 33.4 µM)	> 64	>64	8 (≈ 16.7 µM)		

More lines, now with the values ahead:

MIC [1, 8] [µg/mL]	MIC [2] [µg/mL]	MIC [3] [µg/mL]	MIC [4] [µg/mL]	MIC [5] [µg/mL]	MIC [6] [µg/mL]	MIC E. coli ATCC 25922 + 4 mM EDTA [6] [µg/mL]	MIC ([7]; read-out: MIC NRS 384 (MRSA)) [µg/mL]	MIC ([1]; MHIIB, read-out: MIC against E. faecium ATCC 700221 (VRE)) [µg/mL]	MIC ([7]; MHIIB, read-out: MIC against S. aureus NRS 384 (MRSA)) [µg/mL]	SMILES
> 64	> 64	64 (≈ 126 µM)	> 64	8 (≈ 15.7 µM)	> 64	>64	> 64			O=C(NCCn1ncc2nc(NCc3ccc(Cl)c(Cl)c3)[nH]c(=O)c21)c1cc(Cl)nnc1O [Compound 83, 6-chloro-N-(2-(5-((3,4-dichlorobenzyl)amino)-7-oxo-6,7-dihydro-1H-pyrazolo[4,3-d]pyrimidin-1-yl)ethyl)-3-hydroxypyridazine-4-carboxamide]
32 (≈ 62.8 µM)	64 (≈ 126 µM)	64 (≈ 126 µM)	64 (≈ 126 µM)	16 (≈ 31.4 µM)	> 64	>64	64 (≈ 126 µM)			O=C(NCCn1ncc2nc(NCc3ccc(Cl)c(Cl)c3)[nH]c(=O)c21)c1cc(O)nnc1Cl [Compound 84, 3-chloro-N-(2-(5-((3,4-dichlorobenzyl)amino)-7-oxo-6,7-dihydro-1H-pyrazolo[4,3-d]pyrimidin-1-yl)ethyl)-6-hydroxypyridazine-4-carboxamide]
> 64	> 64	> 64	> 64	> 64	> 64	>64	> 64			O=C(NCCn1ncc2nc(NCc3ccc(Cl)c(Cl)c3)[nH]c(=O)c21)c1cnoc1 [Compound 86, N-(2-(5-((3,4-dichlorobenzyl)amino)-7-oxo-6,7-dihydro-1H-pyrazolo[4,3-d]pyrimidin-1-yl)ethyl)isoxazole-4-carboxamide]
2 (≈ 5.02 µM)	4 (≈ 10 µM)	2 (≈ 5.02 µM)	4 (≈ 10 µM)	2 (≈ 5.02 µM)	> 64	>64	4 (≈ 10 µM)			O=c1[nH]c(NCc2ccc(Cl)c(Cl)c2)nc2cnn(CCOCCO)c12 [Compound 88, 5-((3,4-dichlorobenzyl)amino)-1-(2-(2-hydroxyethoxy)ethyl)-1H-pyrazolo[4,3-d]pyrimidin-7(6H)-one]
1 (≈ 2.62 µM)	4 (≈ 10.5 µM)	1 (≈ 2.62 µM)	4 (≈ 10.5 µM)	2 (≈ 5.23 µM)	> 64	64	2 (≈ 5.23 µM)			O=c1[nH]c(NCc2ccc(Cl)c(Cl)c2)nc2cnn(CCCCO)c12 [Compound 89, 5-((3,4-Dichlorobenzyl)amino)-1-(4-hydroxybutyl)-1H-pyrazolo[4,3-d]pyrimidin-7(6H)-one]
32	32	2	64	4	> 64	64	64			Cl.NCCOCCn1ncc2nc(NCc3ccc(Cl)c(Cl)c3)[nH]c(=O)c21 [Compound 99, 1-(2-(2-aminoethoxy)ethyl)-5-((3,4-dichlorobenzyl)amino)-1H-pyrazolo[4,3-d]pyrimidin-7(6H)-one hydrochloride]
